Measured values taken from ChEMBL document CHEMBL1681676, “The design and synthesis of novel N-hydroxyformamide inhibitors of ADAM-TS4 for the treatment of osteoarthritis” (Bioorg Med Chem Lett, 2011).

Experiments:
[1] = target: Voltage-gated inwardly rectifying potassium channel KCNH2 (Homo sapiens, UniProt Q12809); experiment: Inhibition of human ERG
[2] = target: Matrix metalloproteinase-14 (Homo sapiens, UniProt P50281); experiment: Inhibition of recombinant human MMP14 assessed as substrate cleavage by measuring increase in fluorescence after 16 hrs
Interstitial collagenase = target: T1, Interstitial collagenase (Homo sapiens, UniProt P03956); experiment: Inhibition of recombinant human MMP1 assessed as substrate cleavage by measuring increase in fluorescence after 16 hrs
T1 sequence (P03956 whole entry): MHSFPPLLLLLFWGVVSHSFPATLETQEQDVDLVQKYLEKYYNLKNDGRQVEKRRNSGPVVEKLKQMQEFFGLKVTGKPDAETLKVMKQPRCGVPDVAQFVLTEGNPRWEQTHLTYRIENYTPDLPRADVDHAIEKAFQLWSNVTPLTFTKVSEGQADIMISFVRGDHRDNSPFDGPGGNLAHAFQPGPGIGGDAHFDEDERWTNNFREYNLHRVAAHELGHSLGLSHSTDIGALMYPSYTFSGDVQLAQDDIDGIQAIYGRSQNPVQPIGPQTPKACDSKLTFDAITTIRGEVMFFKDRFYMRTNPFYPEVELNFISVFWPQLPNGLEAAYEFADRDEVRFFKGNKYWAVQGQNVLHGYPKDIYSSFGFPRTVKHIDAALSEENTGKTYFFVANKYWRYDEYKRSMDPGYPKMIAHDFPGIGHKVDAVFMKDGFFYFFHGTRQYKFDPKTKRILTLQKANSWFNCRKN

[3] = target: T2, A disintegrin and metalloproteinase with thrombospondin motifs 4 (Homo sapiens, UniProt O75173); experiment: Inhibition of ADAMTS-4 assessed as substrate cleavage by measuring increase in fluorescence after 16 hrs
T2 sequence (O75173 whole entry): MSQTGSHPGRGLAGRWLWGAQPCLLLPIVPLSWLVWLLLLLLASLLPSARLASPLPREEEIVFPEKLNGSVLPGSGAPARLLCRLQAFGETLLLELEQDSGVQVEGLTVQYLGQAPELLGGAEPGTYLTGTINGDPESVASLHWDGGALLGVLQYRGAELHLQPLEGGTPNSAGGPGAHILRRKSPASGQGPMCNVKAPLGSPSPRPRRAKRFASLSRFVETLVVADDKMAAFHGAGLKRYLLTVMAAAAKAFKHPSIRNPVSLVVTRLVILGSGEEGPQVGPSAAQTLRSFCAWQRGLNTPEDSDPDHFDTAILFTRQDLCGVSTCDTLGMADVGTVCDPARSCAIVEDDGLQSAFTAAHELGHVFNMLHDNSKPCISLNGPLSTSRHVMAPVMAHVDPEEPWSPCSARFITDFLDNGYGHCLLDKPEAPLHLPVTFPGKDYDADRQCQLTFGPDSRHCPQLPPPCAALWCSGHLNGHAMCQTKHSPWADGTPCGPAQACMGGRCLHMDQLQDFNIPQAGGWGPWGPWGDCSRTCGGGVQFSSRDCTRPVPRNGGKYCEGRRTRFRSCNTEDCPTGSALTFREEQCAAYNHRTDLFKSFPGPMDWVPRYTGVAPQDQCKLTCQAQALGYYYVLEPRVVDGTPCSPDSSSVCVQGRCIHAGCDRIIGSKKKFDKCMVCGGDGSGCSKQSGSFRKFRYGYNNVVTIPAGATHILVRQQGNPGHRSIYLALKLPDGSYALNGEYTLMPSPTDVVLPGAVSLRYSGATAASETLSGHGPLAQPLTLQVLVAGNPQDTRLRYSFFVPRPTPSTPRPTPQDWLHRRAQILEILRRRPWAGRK

Cytochrome P450 3A4 = Cytochrome P450 3A4 (Homo sapiens, UniProt P08684); experiment: Inhibition of CYP3A4; type: ADME
Sequence of Cytochrome P450 3A4 (P08684 whole entry): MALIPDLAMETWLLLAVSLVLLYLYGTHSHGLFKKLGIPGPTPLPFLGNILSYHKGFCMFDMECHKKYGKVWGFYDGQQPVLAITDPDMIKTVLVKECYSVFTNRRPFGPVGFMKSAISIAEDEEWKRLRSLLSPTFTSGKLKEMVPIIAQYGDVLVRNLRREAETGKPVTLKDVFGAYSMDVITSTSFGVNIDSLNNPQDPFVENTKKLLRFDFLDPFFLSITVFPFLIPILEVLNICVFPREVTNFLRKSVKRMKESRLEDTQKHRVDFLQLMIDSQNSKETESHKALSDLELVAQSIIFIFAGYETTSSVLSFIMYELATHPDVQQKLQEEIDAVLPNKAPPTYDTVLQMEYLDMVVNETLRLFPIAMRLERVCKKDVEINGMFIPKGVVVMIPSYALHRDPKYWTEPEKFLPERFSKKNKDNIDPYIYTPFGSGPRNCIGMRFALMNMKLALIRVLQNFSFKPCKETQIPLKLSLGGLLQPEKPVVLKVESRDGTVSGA

Collagenase 3 = Collagenase 3 (Homo sapiens, UniProt P45452); experiment: Inhibition of recombinant human MMP13 assessed as substrate cleavage by measuring increase in fluorescence after 16 hrs
[4] = Half life in Han Wistar rat at 2 mg/kg, iv and po by LC-MS/MS analysis; type: ADME, organism-based; design: dose 2 mg/kg, route oral; details: in vivo
[5] = Oral bioavailability in Han Wistar rat at 3 to 10 mg/kg by LC-MS/MS analysis; type: ADME, organism-based; details: in vivo
[6] = Clearance in Han Wistar rat at 2 mg/kg, iv by LC-MS/MS analysis; type: ADME, organism-based; design: dose 2 mg/kg, route intravenous; details: in vivo
[7] = Intrinsic clearance in rat hepatocytes measured per 10^6 cells; type: ADME, cell-based, Liver, Hepatocyte
[8] = Intrinsic clearance in human liver microsomes
[9] = target: 72 kDa type IV collagenase (Homo sapiens, UniProt P08253); experiment: Inhibition of recombinant human MMP2 assessed as substrate cleavage by measuring increase in fluorescence after 16 hrs
Sequence of 72 kDa type IV collagenase (P08253 whole entry, the tested form may be a part): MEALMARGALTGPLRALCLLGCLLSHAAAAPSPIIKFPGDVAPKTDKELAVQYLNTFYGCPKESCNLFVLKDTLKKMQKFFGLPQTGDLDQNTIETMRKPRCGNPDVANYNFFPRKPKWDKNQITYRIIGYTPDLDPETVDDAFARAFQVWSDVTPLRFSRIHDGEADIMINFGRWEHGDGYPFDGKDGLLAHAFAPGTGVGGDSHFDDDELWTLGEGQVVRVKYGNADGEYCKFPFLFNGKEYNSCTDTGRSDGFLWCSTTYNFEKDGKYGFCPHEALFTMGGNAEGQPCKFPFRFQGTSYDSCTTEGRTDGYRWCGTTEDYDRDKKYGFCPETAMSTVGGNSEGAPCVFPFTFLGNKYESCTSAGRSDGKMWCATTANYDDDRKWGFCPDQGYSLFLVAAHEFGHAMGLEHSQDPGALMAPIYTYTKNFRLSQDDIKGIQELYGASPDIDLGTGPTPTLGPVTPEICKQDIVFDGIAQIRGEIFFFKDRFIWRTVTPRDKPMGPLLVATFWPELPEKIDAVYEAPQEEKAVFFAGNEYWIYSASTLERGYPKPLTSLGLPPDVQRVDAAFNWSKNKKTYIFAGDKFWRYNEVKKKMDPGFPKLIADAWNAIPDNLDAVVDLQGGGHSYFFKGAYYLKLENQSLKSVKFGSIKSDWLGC

[10] = target: Disintegrin and metalloproteinase domain-containing protein 17 (Homo sapiens, UniProt P78536); experiment: Inhibition of TACE assessed as substrate cleavage by measuring increase in fluorescence after 16 hrs
Sequence of Disintegrin and metalloproteinase domain-containing protein 17 (P78536 whole entry, the tested form may be a part): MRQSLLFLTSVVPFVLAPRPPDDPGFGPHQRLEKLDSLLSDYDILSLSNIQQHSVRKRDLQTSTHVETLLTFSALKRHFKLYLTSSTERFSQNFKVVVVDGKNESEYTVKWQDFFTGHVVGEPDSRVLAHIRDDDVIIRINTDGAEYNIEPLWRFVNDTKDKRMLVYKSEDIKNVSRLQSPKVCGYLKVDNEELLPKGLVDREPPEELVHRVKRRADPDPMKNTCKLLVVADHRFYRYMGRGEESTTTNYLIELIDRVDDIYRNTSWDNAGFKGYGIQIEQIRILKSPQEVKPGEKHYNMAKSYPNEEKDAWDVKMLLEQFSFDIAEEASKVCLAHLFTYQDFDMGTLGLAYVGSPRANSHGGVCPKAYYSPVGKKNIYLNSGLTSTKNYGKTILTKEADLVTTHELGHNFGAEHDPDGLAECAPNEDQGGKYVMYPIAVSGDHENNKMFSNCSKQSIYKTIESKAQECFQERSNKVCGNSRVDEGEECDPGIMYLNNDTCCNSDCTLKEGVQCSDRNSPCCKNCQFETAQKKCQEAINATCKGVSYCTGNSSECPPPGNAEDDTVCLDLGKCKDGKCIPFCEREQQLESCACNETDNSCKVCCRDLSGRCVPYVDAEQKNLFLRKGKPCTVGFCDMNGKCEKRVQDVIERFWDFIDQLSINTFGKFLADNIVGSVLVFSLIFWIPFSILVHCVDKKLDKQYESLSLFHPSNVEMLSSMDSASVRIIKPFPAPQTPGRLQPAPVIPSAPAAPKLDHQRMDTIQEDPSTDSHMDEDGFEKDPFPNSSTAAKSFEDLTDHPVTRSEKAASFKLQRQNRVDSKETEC

Sequence of Voltage-gated inwardly rectifying potassium channel KCNH2 (Q12809 whole entry): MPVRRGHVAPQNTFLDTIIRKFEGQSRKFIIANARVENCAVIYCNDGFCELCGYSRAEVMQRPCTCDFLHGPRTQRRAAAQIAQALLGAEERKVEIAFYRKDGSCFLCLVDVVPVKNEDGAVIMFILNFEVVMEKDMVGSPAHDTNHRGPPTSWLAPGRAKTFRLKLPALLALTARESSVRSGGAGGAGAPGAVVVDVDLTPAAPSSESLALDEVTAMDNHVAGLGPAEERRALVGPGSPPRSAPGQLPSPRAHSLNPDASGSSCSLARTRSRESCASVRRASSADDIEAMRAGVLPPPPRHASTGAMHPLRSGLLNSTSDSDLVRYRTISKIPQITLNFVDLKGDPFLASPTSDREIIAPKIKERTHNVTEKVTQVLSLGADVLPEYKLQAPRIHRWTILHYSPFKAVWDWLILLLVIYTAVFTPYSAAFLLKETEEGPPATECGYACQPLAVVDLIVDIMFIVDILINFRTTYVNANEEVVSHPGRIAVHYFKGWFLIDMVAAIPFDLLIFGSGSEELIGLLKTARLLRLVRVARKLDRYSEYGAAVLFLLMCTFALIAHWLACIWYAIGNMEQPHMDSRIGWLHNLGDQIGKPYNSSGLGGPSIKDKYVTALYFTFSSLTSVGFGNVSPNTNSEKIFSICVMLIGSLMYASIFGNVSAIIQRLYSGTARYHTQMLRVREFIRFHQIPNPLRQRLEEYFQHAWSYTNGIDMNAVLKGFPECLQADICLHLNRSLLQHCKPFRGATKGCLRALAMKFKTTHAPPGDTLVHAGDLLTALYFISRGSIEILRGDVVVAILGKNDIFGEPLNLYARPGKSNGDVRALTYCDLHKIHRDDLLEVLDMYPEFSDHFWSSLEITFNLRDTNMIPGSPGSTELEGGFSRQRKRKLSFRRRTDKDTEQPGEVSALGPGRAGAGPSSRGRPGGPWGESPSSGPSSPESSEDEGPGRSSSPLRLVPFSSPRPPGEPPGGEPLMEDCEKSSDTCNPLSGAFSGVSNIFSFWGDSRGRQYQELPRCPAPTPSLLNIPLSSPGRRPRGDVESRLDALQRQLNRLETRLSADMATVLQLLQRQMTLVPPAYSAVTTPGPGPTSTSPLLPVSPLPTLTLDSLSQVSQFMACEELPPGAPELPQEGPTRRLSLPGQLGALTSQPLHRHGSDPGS

SMILES	IC50 [1]	IC50 [2]	IC50 (Interstitial collagenase)	IC50 [3]	IC50 (Cytochrome P450 3A4)	IC50 (Collagenase 3)	half-life [4]	bioavailability [5]	clearance [6]	hepatocyte CLint [7]	microsomal CLint [8]	IC50 [9]	IC50 [10]
C[C@@H](C[C@@H](CS(=O)(=O)N1CCN(c2ccc(F)cc2)CC1)N(O)C=O)c1ncc(F)cn1	26 µM	0.011 µM	> 1.1 µM	0.0014 µM	1.4 µM	0.011 µM							
C[C@@H](C[C@@H](CS(=O)(=O)N1CCC(OCc2ccc(Cl)cc2Cl)CC1)N(O)C=O)c1ncc(F)cn1		0.18 µM	9.7 µM	0.001 µM		0.18 µM							
C[C@@H](C[C@@](C)(CS(=O)(=O)N1CCN(c2ccc(F)cc2)CC1)N(O)C=O)c1ncc(F)cn1	21 µM	0.0076 µM	0.98 µM	0.0073 µM	> 10 µM	0.0076 µM							
C[C@@H](C[C@@](C)(CS(=O)(=O)N1CCN(CCc2ccc(Cl)cc2Cl)CC1)N(O)C=O)c1ncc(F)cn1				0.0038 µM			5.6 h	30%	14 mL/min/kg	10.2 µL/min/1e6 cells	54 µL/min/mg		
C[C@@H](C[C@@](C)(CS(=O)(=O)N1CCC(CCc2ccc(Cl)cc2Cl)CC1)N(O)C=O)c1ncc(F)cn1				0.0011 µM			14.9 h	38%	20 mL/min/kg	7.6 µL/min/1e6 cells	6.9 µL/min/mg		
C[C@@H](C[C@@](C)(CS(=O)(=O)N1CCC(NCc2ccc(Cl)cc2Cl)CC1)N(O)C=O)c1ncc(F)cn1				2.2 µM									
C[C@@H](C[C@@](C)(CS(=O)(=O)N1CCC(CCc2ccc(C(F)(F)F)cc2Cl)CC1)N(O)C=O)c1ncc(F)cn1		0.9 µM	> 100 µM	0.00048 µM		0.26 µM						0.17 µM	
Cc1cc(Cl)ccc1CCC1CCN(S(=O)(=O)C[C@](C)(C[C@H](C)c2ncc(F)cn2)N(O)C=O)CC1		0.36 µM	> 8.5 µM	0.00036 µM		0.37 µM						0.53 µM	
C[C@@H](C[C@@](C)(CS(=O)(=O)N1CCC(CCc2ccc(F)cc2Br)CC1)N(O)C=O)c1ncc(F)cn1		0.39 µM	> 8 µM	0.00048 µM		2.3 µM						1.7 µM	
C[C@@H](C[C@@](C)(CS(=O)(=O)N1CCC(CCc2cc(F)ccc2Cl)CC1)N(O)C=O)c1ncc(F)cn1		0.056 µM	> 9.6 µM	0.0028 µM		0.57 µM						0.5 µM	
C[C@@H](C[C@@](C)(CS(=O)(=O)N1CCC(CCc2ccc(F)cc2C(F)(F)F)CC1)N(O)C=O)c1ncc(F)cn1		3.6 µM	9.7 µM	0.00052 µM		16 µM						1.9 µM	0.019 µM
Cc1cc(F)ccc1CCC1CCN(S(=O)(=O)C[C@](C)(C[C@H](C)c2ncc(F)cn2)N(O)C=O)CC1		0.16 µM	> 8.1 µM	0.00018 µM		0.53 µM						0.12 µM	0.021 µM
Cc1cc(C(F)(F)F)ccc1CCC1CCN(S(=O)(=O)C[C@](C)(C[C@H](C)c2ncc(F)cn2)N(O)C=O)CC1		4.6 µM	> 10 µM	0.00049 µM		2.3 µM						0.35 µM	0.42 µM
C[C@@H](C[C@@](C)(CS(=O)(=O)N1CCC(CCc2ccc(C(F)(F)F)cc2C2CC2)CC1)N(O)C=O)c1ncc(F)cn1		18 µM	> 10 µM	0.00094 µM		17 µM						> 9.1 µM	3.2 µM
Cc1ccc(C)c(CCC2CCN(S(=O)(=O)C[C@](C)(C[C@H](C)c3ncc(F)cn3)N(O)C=O)CC2)c1		4.2 µM	> 10 µM	0.00048 µM		23 µM						4.2 µM	0.022 µM
Cc1cc(CCC2CCN(S(=O)(=O)C[C@](C)(C[C@H](C)c3ncc(F)cn3)N(O)C=O)CC2)c(C)cn1		17 µM	> 100 µM	0.00043 µM		14 µM						12 µM	0.23 µM
Cc1cnc(C)c(CCC2CCN(S(=O)(=O)C[C@](C)(C[C@H](C)c3ncc(F)cn3)N(O)C=O)CC2)c1		> 8 µM	55 µM	0.0019 µM		27 µM						35 µM	1.4 µM
Cc1nsc(C)c1CCC1CCN(S(=O)(=O)C[C@](C)(C[C@H](C)c2ncc(F)cn2)N(O)C=O)CC1		2.6 µM		0.00026 µM		4.6 µM						2.4 µM	
Cc1cc(C)c(CCC2CCN(S(=O)(=O)C[C@](C)(C[C@H](C)c3ncc(F)cn3)N(O)C=O)CC2)cn1		> 3.7 µM	> 100 µM	0.00068 µM		> 4.5 µM						2.2 µM	3 µM
C[C@@H](C[C@@](C)(CS(=O)(=O)N1CCC(CCc2ncc(C(F)(F)F)cc2Cl)CC1)N(O)C=O)c1ncc(F)cn1		> 18 µM	> 70 µM	0.0042 µM		> 16 µM						2.8 µM	27 µM
Cc1cc(C(F)(F)F)cnc1CCC1CCN(S(=O)(=O)C[C@](C)(C[C@H](C)c2ncc(F)cn2)N(O)C=O)CC1		40 µM	> 79 µM	0.0021 µM		6.1 µM						2.5 µM	24 µM
C[C@@H](C[C@@](C)(CS(=O)(=O)N1CCC(CCc2ccc(S(C)(=O)=O)cc2Cl)CC1)N(O)C=O)c1ncc(F)cn1		> 3.6 µM	> 70 µM	0.00057 µM		0.35 µM						0.18 µM	5.5 µM
Cc1cc(CCC2CCN(S(=O)(=O)C[C@](C)(C[C@H](C)c3ncc(F)cn3)N(O)C=O)CC2)n(C)n1		29 µM	> 10 µM	0.0054 µM		6.7 µM						26 µM	2.8 µM
